{
  "source": "patent US20130029942A1",
  "about": "“COMPOUNDS AND THERAPEUTICAL USES THEREOF” (Myrexis, Inc., priority 2003, published 2013)",
  "data": [
    {"system": "P388 murine leukemia cell line", "experiment": "P388 cytotoxicity (ATP-Lite, 72 hours)", "format": "cell-based", "conditions": "Mus musculus, P388, 72 hours", "description": "A P388 murine leukemia cell line was obtained from NCI, Frederick, Md. P388 cells were cultured in RPMI-1640 supplemented with 10% fetal bovine serum, 2 mM Glutamax, 1 mM sodium pyruvate, 0.1 mM non-essential amino acids and 10 mM HEPES. Cells were grown at 37° C. in a humidified 5% CO2 atmosphere. Exponentially growing P388 cells were plated at 5,000 cells/well in a 96-well flat-bottomed microtiter plate (Corning, Costar #3595). […] Cellular viability was determined 72 hours later by measuring intracellular ATP with ATP-Lite assay system. The effect of compounds on cell viability was calculated by comparing the ATP levels of cells exposed to test compound with those of cells exposed to DMSO. […] Data was analyzed by Prism software (GraphPad; San Diego, Calif.) by fitting it to a sigmoidal dose response curve.", "units": {"IC50": "nM"}, "values": [
      {"smiles": "COc1ccc(N(C)c2nncc3ccc(F)cc23)cc1", "note": "[Example 195, (7-Fluoro-phthalazin-1-yl)-(4-methoxy-phenyl)-methyl-amine]", "IC50": 1500},
      {"smiles": "CCOc1nc(N(C)c2ccc(OC)cc2)c2ccccc2n1", "note": "[Example 182, (2-Ethoxy-quinazolin-4-yl)-(4-methoxy-phenyl)-methyl-amine]", "IC50": 2300},
      {"smiles": "COc1ccc(N(C)c2nc(C)nc3ccc(NS(=O)(=O)c4ccc(OC)cc4)cc23)cc1", "note": "[Example 236, 4-Methoxy-N-{4-[(4-methoxy-phenyl)-methyl-amino]-2-methyl-quinazolin-6-yl}-benzenesulfonamide]", "IC50": 680},
      {"smiles": "Cc1nc(N(C)c2ccc(OC(C)C)cc2)c2cc(N)ccc2n1", "note": "[Example 226, N^4-(4-Isopropoxy-phenyl)-2,N^4-dimethyl-quinazoline-4,6-diamine]", "IC50": 20},
      {"smiles": "CCOc1ccc(N(C)c2nc(CN)nc3cccc(F)c23)c(F)c1", "note": "[Example 250, (2-Aminomethyl-5-fluoro-quinazolin-4-yl)-(4-ethoxy-2-fluoro-phenyl)-methyl-amine]", "IC50": 22},
      {"smiles": "COc1cccc(CN(C)c2nc(Cl)nc3ccccc23)c1", "note": "[Example 179, (2-Chloro-quinazolin-4-yl)-(3-methoxy-benzyl)-methyl-amine]", "IC50": 1400},
      {"smiles": "COc1ccc(N(C)c2nc(CN)nc3ccc(Br)cc23)cc1", "note": "[Example 219, (2-Aminomethyl-6-bromo-quinazolin-4-yl)-(4-methoxy-phenyl)-methyl-amine]", "IC50": 250},
      {"smiles": "COc1ccc(N(C)c2nc(CN3CCCCC3=O)nc3ccccc23)cc1", "note": "[Example 252, 1-{4-[(4-Methoxy-phenyl)-methyl-amino]-quinazolin-2-ylmethyl}-piperidin-2-one]", "IC50": 1000},
      {"smiles": "COc1ccc(N(C)c2nc(N(C)CCCN(C)C)nc3ccccc23)cc1", "note": "[Example 183, N^2-(3-Dimethylamino-propyl)-N^4-(4-methoxy-phenyl)-N^2,N^4-dimethyl-quinazoline-2,4-diamine]", "IC50": 490},
      {"smiles": "Cc1nc(N(C)c2ccc(OC(C)C)cc2)c2cc([N+](=O)[O-])ccc2n1", "note": "[Example 224, (4-Isopropoxy-phenyl)-methyl-(2-methyl-6-nitro-quinazolin-4-yl)-amine]", "IC50": 170},
      {"smiles": "COc1ccc(N(C)c2nc(CNC(=O)CCC(=O)O)nc3ccccc23)cc1", "note": "[Example 232, N-{4-[(4-Methoxy-phenyl)-methyl-amino]-quinazolin-2-ylmethyl}-succinamic acid]", "IC50": 950},
      {"smiles": "COc1ccc(N(C)c2nc(CN)nc3ccc(N)cc23)cc1", "note": "[Example 213, 2-Aminomethyl-N4-(4-methoxy-phenyl)-N4-methyl-quinazoline-4,6-diamine]", "IC50": 170},
      {"smiles": "COc1ccc(N(C)c2nc(CN)nc3ccc(-c4ccc(Cl)cc4)cc23)cc1", "note": "[Example 241, [2-Aminomethyl-6-(4-chloro-phenyl)-quinazolin-4-yl]-(4-methoxy-phenyl)-methyl-amine]", "IC50": 1440},
      {"smiles": "COc1ccc(N(C)c2nc(CN)nc3ccccc23)cc1F", "note": "[Example 234, (2-Aminomethyl-quinazolin-4-yl)-(3-fluoro-4-methoxy-phenyl)-methyl-amine]", "IC50": 11},
      {"smiles": "COc1ccc(N(C)c2nc(N(C)CCCN)nc3ccccc23)cc1", "note": "[Example 227, N^2-(3-Amino-propyl)-N^4-(4-methoxy-phenyl)-N^2,N^4-dimethyl-quinazoline-2,4-diamine]", "IC50": 27},
      {"smiles": "CONc1nc2c(c(N(C)c3ccc(OC)cc3)n1)CCC2", "note": "[Example 197, N-{4-[(4-Methoxy-phenyl)-methyl-amino]-6,7-dihydro-5H-cyclopentapyrimidin-2-yl}-O-methyl-hydroxylamine]", "IC50": 8},
      {"smiles": "COc1c(Cl)cc(N(C)c2nc(CCl)nc3ccccc23)cc1Cl", "note": "[Example 251, (2-Chloromethyl-quinazolin-4-yl)-(3,5-dichloro-4-methoxy-phenyl)-methyl-amine]", "IC50": 2080},
      {"smiles": "COc1ccc(N(C)c2nc(CCl)nc3ccccc23)cc1Cl", "note": "[Example 242, (3-Chloro-4-methoxy-phenyl)-(2-chloromethyl-quinazolin-4-yl)-methyl-amine]", "IC50": 10},
      {"smiles": "COc1ccc(N(C)c2nc(C)nc3ccc(Br)cc23)cc1", "note": "[Example 245, (6-Bromo-2-methyl-quinazolin-4-yl)-(4-methoxy-phenyl)-methyl-amine]", "IC50": 2},
      {"smiles": "CCOc1ccc(N(C)c2nc(CCl)nc3ccccc23)cc1Cl", "note": "[Example 258, (3-Chloro-4-ethoxy-phenyl)-(2-chloromethyl-quinazolin-4-yl)-methyl-amine]", "IC50": 15},
      {"smiles": "CNCCCNc1nc(N(C)c2ccc(OC)cc2)c2ccccc2n1", "note": "[Example 228, N^4-(4-Methoxy-phenyl)-N^4-methyl-N^2-(3-methylamino-propyl)-quinazoline-2,4-diamine]", "IC50": 900},
      {"smiles": "COc1ccc(N(C)c2nc(CC#N)nc3ccccc23)cc1", "note": "[Example 206, {4-[(4-Methoxy-phenyl)-methyl-amino]-quinazolin-2-yl}-acetonitrile]", "IC50": 2},
      {"smiles": "CN(c1ccc(O)cc1)c1nc(CN)nc2ccccc12", "note": "[Example 230, 4-[(2-Aminomethyl-quinazolin-4-yl)-methyl-amino]-phenol]", "IC50": 1700},
      {"smiles": "CCOC(=O)CNc1nc2c(c(N(C)c3ccc(OC)cc3)n1)CCC2", "note": "[Example 202, {4-[(4-Methoxy-phenyl)-methyl-amino]-6,7-dihydro-5H-cyclopentapyrimidin-2-ylamino}-acetic acid ethyl ester]", "IC50": 300},
      {"smiles": "CONc1nc2c(c(N(C)c3ccc(OC)cc3)n1)CCCC2", "note": "[Example 190, N-{4-[(4-Methoxy-phenyl)-methyl-amino]-5,6,7,8-tetrahydro-quinazolin-2-yl}-O-methyl-hydroxylamine]", "IC50": 6},
      {"smiles": "COc1ccc(N(C)c2nc(CN)nc3cccc(F)c23)cc1", "note": "[Example 229, (2-Aminomethyl-5-fluoro-quinazolin-4-yl)-(4-methoxy-phenyl)-methyl-amine]", "IC50": 5},
      {"smiles": "COc1ccc(N(C)c2nc(C)nc3ccc(C#N)cc23)cc1", "note": "[Example 249, 4-[(4-Methoxy-phenyl)-methyl-amino]-2-methyl-quinazoline-6-carbonitrile]", "IC50": 20},
      {"smiles": "CCOc1ccc(N(C)c2nc(C)nc3ccc(Br)cc23)cc1F", "note": "[Example 246, (6-Bromo-2-methyl-quinazolin-4-yl)-(4-ethoxy-3-fluoro-phenyl)-methyl-amine]", "IC50": 11},
      {"smiles": "CCOc1ccc(N(C)c2nc(CN)nc3ccccc23)cc1Cl", "note": "[Example 261]", "IC50": 9},
      {"smiles": "COC(=O)CN(C)c1nc(N(C)c2ccc(OC)cc2)c2ccccc2n1", "note": "[Example 187, ({4-[(4-Methoxy-phenyl)-methyl-amino]-quinazolin-2-yl}-methyl-amino)-acetic acid methyl ester]", "IC50": 110},
      {"smiles": "COc1ccc(N(C)c2nc(C(C)(C)C#N)nc3ccccc23)cc1", "note": "[Example 231, 2-{4-[(4-Methoxy-phenyl)-methyl-amino]-quinazolin-2-yl}-2-methyl-propionitrile]", "IC50": 37},
      {"smiles": "COc1ccc(N(C)c2nc(C)nc3ccc([N+](=O)[O-])cc23)c(F)c1", "note": "[Example 221, (2-Fluoro-4-methoxy-phenyl)-methyl-(2-methyl-6-nitro-quinazolin-4-yl)-amine]", "IC50": 58},
      {"smiles": "COc1ccc(N(C)c2nc(CCl)nc3ccc(Br)cc23)cc1", "note": "[Example 208, (6-Bromo-2-chloromethyl-quinazolin-4-yl)-(4-methoxy-phenyl)-methyl-amine]", "IC50": 27},
      {"smiles": "COc1ccc(N(C)c2nc(OC(C)C)nc3cccc(F)c23)cc1", "note": "[Example 198, (5-Fluoro-2-isopropoxy-quinazolin-4-yl)-(4-methoxy-phenyl)-methyl-amine]", "IC50": 3},
      {"smiles": "COc1ccc(N(C)c2nc(CNC(=O)c3cccnc3)nc3ccccc23)cc1", "note": "[Example 244, N-{4-[(4-Methoxy-phenyl)-methyl-amino]-quinazolin-2-ylmethyl}-nicotinamide]", "IC50": 58},
      {"smiles": "COc1ccc(N(C)c2nc(C)nc3ccc(CN)cc23)cc1", "note": "[Example 259, (6-Aminomethyl-2-methyl-quinazolin-4-yl)-(4-methoxy-phenyl)-methyl-amine]", "IC50": 773},
      {"smiles": "COc1ccc(N(C)c2nc(CNC(C)=O)nc3ccccc23)cc1", "note": "[Example 203, N-{4-[(4-Methoxy-phenyl)-methyl-amino]-quinazolin-2-ylmethyl}-acetamide]", "IC50": 19},
      {"smiles": "CCOc1ccc(N(C)c2nc(CN)nc3ccccc23)c(F)c1", "note": "[Example 237, (2-Aminomethyl-quinazolin-4-yl)-(4-ethoxy-2-fluoro-phenyl)-methyl-amine]", "IC50": 15},
      {"smiles": "COc1ccc(N(C)c2nncc3cc(F)ccc23)cc1", "note": "[Example 196, (6-Fluoro-phthalazin-1-yl)-(4-methoxy-phenyl)-methyl-amine]", "IC50": 330},
      {"smiles": "COc1ccc(N(C)c2nc(C)nc3c2CCCC3)cc1", "note": "[Example 188, (4-Methoxy-phenyl)-methyl-(2-methyl-5,6,7,8-tetrahydro-quinazolin-4-yl)-amine]", "IC50": 2},
      {"smiles": "CCOc1c(Cl)cc(N(C)c2nc(CCl)nc3ccccc23)cc1Cl", "note": "[Example 257, (2-Chloromethyl-quinazolin-4-yl)-(3,5-dichloro-4-ethoxy-phenyl)-methyl-amine]", "IC50": 2400},
      {"smiles": "Cc1nc(N(C)c2ccc(N(C)C(=O)OC(C)(C)C)cc2)c2ccccc2n1", "note": "[Example 204, Methyl-{4-[methyl-(2-methyl-quinazolin-4-yl)-amino]-phenyl}-carbamic acid tert-butyl ester]", "IC50": 460},
      {"smiles": "CCOc1ccc(N(C)c2nc(CN)nc3ccccc23)cc1", "note": "[Example 211, (2-Aminomethyl-quinazolin-4-yl)-(4-ethoxy-phenyl)-methyl-amine]", "IC50": 15},
      {"smiles": "COc1ccc(N(C)c2nc(NCCO)nc3ccc(N)cc23)cc1", "note": "[Example 189, 2-{6-Amino-4-[(4-methoxy-phenyl)-methyl-amino]-quinazolin-2-ylamino}-ethanol]", "IC50": 460}
    ]}
  ]
}
